According to publication PMC8205226, “HIV-1 Integrase Inhibitors with Modifications That Affect Their Potencies against Drug Resistant Integrase Mutants” (ACS Infectious Diseases, 2021):
Read-outs that look alike come from different tables or passages of the source.

Columns and labels:
[1] = system: HIV-1 IN mutant P142S; assay: single-round infectivity assay, P142S IN mutant; type: cell-based
Experimental: (§1) Figure 4 Mutations in the β5-α3 loop affect the antiviral potencies of the new compounds. The EC50 values were determined using a vector that carries the IN mutant in a single round infection assay. […] Error bars represent the standard deviations of independent experiments, n = 4, performed in triplicate.
(§2) WT and mutant HIV-1 viral vectors were used in single-round infectivity assays to determine the antiviral potencies (EC50 values) of the compounds and the effects of the mutants on the EC50 values as previously described.[30],[54] Single round infectivity measurements were determined as done previously.[38]
(§3) The vector pNLNgoMIVR-ΔENV.LUC has been described previously.[26] To produce the new IN mutants used in this study, the IN open reading frame was removed from pNLNgoMIVR-ΔENV.LUC by digestion with KpnI and SalI, and the resulting fragment was inserted between the KpnI and SalI sites of pBluescript KS+. Using that construct as the wild-type template, we prepared the following HIV-1 IN mutants using the QuikChange II XL site directed mutagenesis kit (Agilent Technologies, Santa Clara, CA) protocol: N117A, N117H, P142A, P142H, P142S, Y143C, Y143H, S230R, R231G, and R231K. The following sense oligonucleotides were used with matching cognate antisense oligonucleotides (not shown) (Integrated DNA Technologies, Coralville, IA) in the mutagenesis: N117A, 5′-[…]-3′; N117H, 5′-[…]-3′; P142A, 5′-[…]-3′; P142H, 5′-[…]-3′; P142S, 5′-[…]-3′; Y143C, 5′- […]-3′; Y143H, 5′-[…]-3′; S230R, 5′- […]-3′; R231G, 5′-[…]-3′; R231K, 5′-[…]-3′.

[2] = system: HIV-1 IN mutant G118R; details: single round infection; previously shown; cited from earlier work
[3] = system: HIV-1 IN mutant Y143H; assay: single-round infectivity assay, Y143H IN mutant; type: cell-based
Experimental: as §1, §2, §3

[4] = system: HIV-1 IN mutant R231G; assay: single-round infectivity assay, R231G IN mutant; type: cell-based
Experimental: as §1, with “5 Antiviral” for “4 Mutations in the β5-α3 loop affect the antiviral”, “compounds against IN with mutations in the […].” for “compounds.”
as §2, §3

[5] = system: HIV-1 IN mutant Y143C; assay: single-round infectivity assay, Y143C IN mutant; type: cell-based
Experimental: as §1, §2, §3

[6] = system: HIV-1 IN mutant S230R; assay: single-round infectivity assay, S230R IN mutant; type: cell-based
Experimental: as §1, with “5 Antiviral” for “4 Mutations in the β5-α3 loop affect the antiviral”, “compounds against IN with mutations in the […].” for “compounds.”
as §2, §3

[7] = system: HIV-1 IN mutant N117H; assay: single-round infectivity assay, N117H IN mutant; type: cell-based
Experimental: (§4) The EC50 values were determined using a vector that carries the IN mutant in a single round infection assay. […] Error bars represent the standard deviations of independent experiments, n = 4, performed in triplicate.
as §2, §3

[8] = system: HIV-1 IN mutant N155H; assay: single-round infectivity assay, N155H IN mutant; type: cell-based
Experimental: (§5) Figure 2 Antiviral activities of the new compounds against RAL-resistant mutants. The EC50 values were determined using a vector that carries WT HIV-1 IN and the RAL-resistant mutants in a single round infection assay. […] Error bars represent the standard deviations of independent experiments, n = 4, performed in triplicate. The graph has a maximum value of 550 nM.
as §2, §3

[9] = system: HIV-1 IN mutant N155H; details: single round infection; previously reported; cited from earlier work
[10] = system: HIV-1 IN mutant P142H; assay: single-round infectivity assay, P142H IN mutant; type: cell-based
Experimental: as §4
Single round infectivity measurements were determined as done previously.[38]
as §3

[11] = system: HIV-1 IN mutant G118R; assay: single-round infectivity assay, G118R IN mutant; type: cell-based
Experimental: as §4, §2, §3

[12] = system: HIV-1 IN mutant N117A; assay: single-round infectivity assay, N117A IN mutant; type: cell-based
Experimental: as §4, §2, §3

[13] = system: HIV-1 IN double mutant G140S/Q148H; details: single round infection; previously reported; cited from earlier work
[14] = system: HIV-1 IN mutant S119R; assay: single-round infectivity assay, S119R IN mutant; type: cell-based
Experimental: as §4, §2, §3

[15] = system: HIV-1 IN double mutant G140S/Q148H; assay: single-round infectivity assay, G140S/Q148H IN double mutant; type: cell-based
Experimental: as §5, §2, §3

[16] = system: HIV-1 IN mutant P142A; assay: single-round infectivity assay, P142A IN mutant; type: cell-based
Experimental: as §1, §2, §3

[17] = system: HIV-1 IN mutant R231K; assay: single-round infectivity assay, R231K IN mutant; type: cell-based; details: EC50 compound / EC50 DTG
Experimental: as §4, with “Figure 5 Antiviral potencies of the new compounds against IN with mutations in the […]. The” for “The”
as §2, §3

[18] = system: HIV-1 IN mutant Y143R; details: single round infection; previously reported; cited from earlier work
[19] = system: HIV-1 IN mutant Y143R; assay: single-round infectivity assay, Y143R IN mutant; type: cell-based
Experimental: as §5, §2, §3

[20] = system: WT HIV-1; details: vector carrying WT HIV-1 IN, single round infection; previously reported; cited from earlier work
[21] = fold change in EC50, IN mutant versus WT HIV-1

Nc1c(C(=O)NCc2ccc(F)cc2F)c(=O)n(O)c2ncc(CCCCCCO)cc12 [4d]
ratio of the EC50s (our compound relative to DTG) against P142S ([1]; EC50 compound / EC50 DTG): 0.5
EC50 ([1]; Human immunodeficiency virus 1, read-out: EC50 values P142S): 1.2 ± 0.2 nM
FC P142S [1, 21]: 0.5
EC50 [2]: 6.4 ± 2.5 nM
ratio of the EC50s (our compound relative to DTG) against Y143H ([3]; EC50 compound / EC50 DTG): 0.8
EC50 ([3]; Human immunodeficiency virus 1, read-out: EC50 values Y143H, single round infection, n = 4): 1.5 ± 0.1 nM
FC Y143H [3, 21]: 0.7
EC50 ([3]; read-out: EC50 values Y143H, single round infection, n = 4): < 3 nM
ratio of the EC50s (our compound relative to DTG) against R231G ([4]; EC50 compound / EC50 DTG): 0.9
EC50 ([4]; Human immunodeficiency virus 1, read-out: EC50 values R231G): 1.3 ± 0.2 nM
FC R231G [4, 21]: 0.6
ratio of the EC50s (our compound relative to DTG) against Y143C ([5]; EC50 compound / EC50 DTG): 0.9
FC Y143C [5, 21]: 0.5
ratio of the EC50s (our compound relative to DTG) against S230R ([6]; EC50 compound / EC50 DTG): 0.8
EC50 ([6]; Human immunodeficiency virus 1, read-out: EC50 values S230R): 3.8 ± 0.3 nM
FC S230R [6, 21]: 1.7
ratio of the EC50s (our compound relative to DTG) against N117H ([7]; EC50 compound / EC50 DTG): 1.3
EC50 ([7]; Human immunodeficiency virus 1, read-out: EC50 values N117H): 3 nM
FC N117H [7, 21]: 1.3
ratio of the EC50s (our compound relative to DTG) against N155H ([8]; EC50 compound / EC50 DTG): 0.8
FC N155H [8, 21]: 1.2
EC50 [9]: 2.7 ± 1 nM
ratio of the EC50s (our compound relative to DTG) against P142H ([10]; EC50 compound / EC50 DTG): 0.5
EC50 ([10]; Human immunodeficiency virus 1, read-out: EC50 values P142H): 1.5 ± 0.1 nM
FC P142H [10, 21]: 0.7
ratio of the EC50s (our compound relative to DTG) against G118R ([11]; EC50 compound / EC50 DTG): 0.5
FC G118R [11, 21]: 2.8
ratio of the EC50s (our compound relative to DTG) against N117A ([12]; EC50 compound / EC50 DTG): 1.2
EC50 ([12]; Human immunodeficiency virus 1, read-out: EC50 values N117A): 0.6 nM
FC N117A [12, 21]: 0.3
EC50 [13]: 9.4 ± 3.6 nM
ratio of the EC50s (our compound relative to DTG) against S119R ([14]; EC50 compound / EC50 DTG): 0.9
EC50 ([14]; Human immunodeficiency virus 1, read-out: EC50 values S119R): 2.1 ± 0.1 nM
FC S119R [14, 21]: 0.9
ratio of the EC50s (our compound relative to DTG) against G140S/Q148H ([15]; EC50 compound / EC50 DTG): 1.6
FC G140S/Q148H [15, 21]: 4.1
ratio of the EC50s (our compound relative to DTG) against P142A ([16]; EC50 compound / EC50 DTG): 0.8
EC50 ([16]; Human immunodeficiency virus 1, read-out: EC50 values P142A): 2.1 ± 0.3 nM
FC P142A [16, 21]: 0.9
ratio of the EC50s (our compound relative to DTG) against R231K [17]: 0.6
EC50 [18]: 2.1 ± 1.4 nM
ratio of the EC50s (our compound relative to DTG) against Y143R ([19]; EC50 compound / EC50 DTG): 0.5
FC Y143R [19, 21]: 0.9
EC50 [20]: 2.3 ± 0.6 nM
